Test results published in patent US10786518B2, “Compositions and methods of treating HIV” (priority 2017, dated 2020).
Where “and” joins values, the source holds several entries; their conditions need not be identical. Identical values can stand only once. Counter-ions that a name gives are not always drawn. Like-named read-outs stand apart in the source and are kept apart here. Marks after values point to notes of the source that are not given here.

Columns and labels:
[1] = clinical; details: human, po
[2] = clinical; details: human
[3] = Bioequivalence study: plasma pharmacokinetics; details: single oral dose D/C/F/TAF 800/150/200/10 mg (test), fed, standardized regular breakfast
[4] = Food-effect bioavailability study: plasma pharmacokinetics; details: for AUCinf geometric mean ratio (90% CI), fasted (test) vs fed (reference) / AUClast geometric mean ratio (90% CI), fasted (test) vs fed (reference) / Cmax geometric mean ratio (90% CI), fasted (test) vs fed (reference) / t1/2term, mean (SD) / AUCinf, mean (SD) / AUClast, mean (SD) / Cmax, mean (SD): single oral dose D/C/F/TAF 800/150/200/10 mg;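 on all read-outs here: volunteers randomized to two single-dose treatment sessions separated by a washout of at least 7 days, dosing preceded by an overnight fast of at least 10 h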
[5] = system: HIV-1; details: n = 102 newly diagnosed treatment-naive patients
[6] = cited from earlier work; for Mean systemic tenofovir exposure: TAF group versus TDF group of the Phase II study
[7] = human, in vivo
[8] = human, in vivo; remark: listed apart in the source
[9] = administered as D/C/F/TAF, fed = standardized high-fat breakfast
[10] = fed, standardized high-fat breakfast (reference)
[11] = subset of 32 treatment-naive HIV-1-infected adults

| Structure (SMILES) | t1/2term, mean [3] [h] | AUCinf lower in fasted compared with fed conditions [4, 9] [%] | AUCinf geometric mean ratio (90% CI), fasted (test) vs fed (reference) [4] | AUClast geometric mean ratio (90% CI), fasted (test) vs fed (reference) [4] | Cmax geometric mean ratio (90% CI), fasted (test) vs fed (reference) [4] | t1/2term, mean (SD) ([4]; fasted (test)) | AUCinf, mean (SD) [4, 10] | Cmax, mean (SD) [4, 10] | t1/2term, mean (SD) [4, 10] | Genotypic susceptibility at screening/baseline, patients [5] | Mean systemic tenofovir exposure [6] [ng·h/mL] | AUC(0-inf) ([2]; in vivo) [ng·h/mL] | Cmax ([2]; in vivo) [ng/mL] | AUC(0-t) ([2]; in vivo) [ng·h/mL] | other results |
| --- | --- | --- | --- | --- | --- | --- | --- | --- | --- | --- | --- | --- | --- | --- | --- |
| CC(C)c1nc(CN(C)C(=O)N[C@@H](CCN2CCOCC2)C(=O)N[C@H](CC[C@H](Cc2ccccc2)NC(=O)OCc2cncs2)Cc2ccccc2)cs1 [COBI, cobicistat] | 3.7 | 16 | 84.39^k (68.52-103.95)^ % | 70.90 (51.13-98.30) % | 76.96 (55.70-106.33) % | 4.1 (0.9) hours | 6258 (2268) ng · h/mL | 711 (164) ng/mL | 3.9 (0.6) hours |  |  |  |  |  | Tmax ([1]; plasma): 3 h; AUC(0-inf) ([2]; plasma, oral): 6870 ng·h/mL; AUC(0-t) ([2]; plasma, oral): 6760 ng·h/mL; Cmax ([2]; plasma, oral): 881 ng/mL; Tmax ([2]; plasma, oral): 4 h; AUClast lower in fasted compared with fed conditions [4, 9]: 29%; Cmax lower in fasted compared with fed conditions [4, 9]: 23%; AUClast, mean (SD) [4, 10]: 6168 (2260) ng · h/mL |
| CC(C)OC(=O)OCOP(=O)(CO[C@H](C)Cn1cnc2c(N)ncnc21)OCOC(=O)OC(C)C [TDF, tenofovir disoproxil fumarate] |  |  |  |  |  |  |  |  |  | (100) % | 3737 |  |  |  |  |
| CC(C)CN(C[C@@H](O)[C@H](Cc1ccccc1)NC(=O)O[C@H]1CO[C@H]2OCC[C@H]21)S(=O)(=O)c1ccc(N)cc1 [DRV, darunavir] |  |  |  |  |  |  |  |  |  | (100) % |  | 85200 | 6620 |  |  |
| CC(C)OC(=O)[C@H](C)N[P@](=O)(CO[C@H](C)Cn1cnc2c(N)ncnc21)Oc1ccccc1 [TAF, tenofovir alafenamide] | 0.3 | 20 | 80.38^l (73.04-88.45)^ % | 89.54 (81.20-98.72) % | 182.29 (140.50-236.50) % | 0.3 (0.2) hours | 125 (57.3) ng · h/mL | 107 (65.2) ng/mL | 0.5 hours and 0.5 (0.1) hours |  | 339 | 141 | 120 | 132 | Tmax ([1]; in vivo): 0.5 h; Tmax ([2]; in vivo): 1.01 h; Lower mean systemic tenofovir exposure than in the TDF group ([6]; Phase II study): greater than 90%; Mean plasma exposure (AUClast) [6, 11]: 130.5 ng·h/mL; Median plasma half-life [6, 11]: 0.45 h; AUClast, fasted versus fed conditions (90% CI of the GMR within 80% to […]) ([4]; administered as D/C/F/TAF): comparable under both conditions; Cmax higher in fasted compared with fed conditions [4, 9]: 82%; AUClast, mean (SD) ([4]; fasted (test)): 106 (44.7) ng · h/mL |
| Nc1nc(=O)n([C@@H]2CS[C@H](CO)O2)cc1F [FTC, emtricitabine] |  |  |  |  |  |  |  |  |  | (98) % |  | 11900 | 2050 | 11700 | Cmax higher in fasted compared with fed conditions [7]: 26%; AUClast geometric mean ratio (90% CI), fasted (test) vs fed (reference) ([7]; po): 100.12 (96.29-104.10) %; AUCinf geometric mean ratio, test vs reference [8]: 100.13%; AUClast geometric mean ratio, test vs reference [8]: 100.04%; Cmax geometric mean ratio, test vs reference [8]: 99.32%; t1/2term, mean [8]: 17.0 h; t1/2term, mean ([8]; po): 16.5 h |
